Test results published in the supplement of paper PMC10733146.

Columns and labels:
Assay in all cases: viability relative to DMSO control (fraction); higher = less drug effect (more viable cells)
Conditions in all cases: 48 h
[1] = test system: primary AML patient cells (S081)
In short: (§1)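 Viability was measured as CellTiter-Glo luminescence relative to the median of 16 inner DMSO wells. Primary mononuclear tumour cells, fresh or cryopreserved, were Ficoll-isolated from blood or bone marrow or taken from processed lymph node. They were seeded at 4 × 10^4 cells per well into 384-well plates holding pre-plated compounds at five concentrations, one well each, and kept in RPMI-1640 with penicillin/streptomycin, L-glutamine and human serum at 37 °C and 5% CO2 for 48 h.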

[2] = test system: primary FL patient cells (S022)
In short: as §1

[3] = test system: primary ALL patient cells (S048)
In short: as §1

[4] = test system: primary AML patient cells (S011)
In short: as §1

[5] = test system: primary AML patient cells (S017)
In short: as §1

[6] = test system: primary BL patient cells (S005)
In short: as §1

[7] = test system: primary AML patient cells (S006)
In short: as §1

[8] = test system: primary MCL patient cells (S063)
In short: as §1

[9] = test system: primary FL patient cells (S087)
In short: as §1

[10] = test system: primary AML patient cells (S060)
In short: as §1

[11] = test system: primary CLL patient cells (S031)
In short: as §1

[12] = test system: primary AML patient cells (S021)
In short: as §1

[13] = test system: primary AML patient cells (S012)
In short: as §1

[14] = test system: primary CLL patient cells (S043)
In short: as §1

[15] = test system: primary B-PLL patient cells (S016)
In short: as §1

[16] = test system: primary AML patient cells (S085)
In short: as §1

[17] = test system: primary ALL patient cells (S088)
In short: as §1

[18] = test system: primary MCL patient cells (S068)
In short: as §1

[19] = test system: primary AML patient cells (S056)
In short: as §1

[20] = test system: primary MCL patient cells (S053)
In short: as §1

CC1(COc2ccc3c(c2)ncn3-c2ccc3cccc(N4CCC(N)CC4)c3n2)COC1 [Crenolanib]
viability ([1]; 0.016 µM): 0.948 | viability ([1]; 0.08 µM): 1.09 | viability ([1]; 0.4 µM): 0.953 | viability ([1]; 2 µM): 1.07 | viability ([1]; 10 µM): 0.0325 | viability ([2]; 0.016 µM): 0.991 | viability ([2]; 0.08 µM): 1.07 | viability ([2]; 0.4 µM): 0.966 | viability ([2]; 2 µM): 0.743 | viability ([2]; 10 µM): 0.0846 | viability ([3]; 0.016 µM): 0.85 | viability ([3]; 0.08 µM): 0.851 | viability ([3]; 0.4 µM): 0.797 | viability ([3]; 2 µM): 0.554 | viability ([3]; 10 µM): 0.418 | viability ([4]; 0.016 µM): 1.14 | viability ([4]; 0.08 µM): 0.997 | viability ([4]; 0.4 µM): 1.02 | viability ([4]; 2 µM): 0.824 | viability ([4]; 10 µM): 0.0337 | viability ([5]; 0.016 µM): 1.05 | viability ([5]; 0.08 µM): 1.09 | viability ([5]; 0.4 µM): 1.12 | viability ([5]; 2 µM): 1.16 | viability ([5]; 10 µM): 0.109 | viability ([6]; 0.016 µM): 0.9 | viability ([6]; 0.08 µM): 0.959 | viability ([6]; 0.4 µM): 0.896 | viability ([6]; 2 µM): 0.913 | viability ([6]; 10 µM): 0.414 | viability ([7]; 0.016 µM): 0.559 | viability ([7]; 0.08 µM): 0.649 | viability ([7]; 0.4 µM): 0.889 | viability ([7]; 2 µM): 0.977 | viability ([7]; 10 µM): 0.333 | viability ([8]; 0.016 µM): 1.08 | viability ([8]; 0.08 µM): 1.13 | viability ([8]; 0.4 µM): 0.958 | viability ([8]; 2 µM): 0.83 | viability ([8]; 10 µM): 0.0336 | viability ([9]; 0.016 µM): 1.02 | viability ([9]; 0.08 µM): 0.971 | viability ([9]; 0.4 µM): 1 | viability ([9]; 2 µM): 0.847 | viability ([9]; 10 µM): 0.357 | viability ([10]; 0.016 µM): 1.12 | viability ([10]; 0.08 µM): 1.1 | viability ([10]; 0.4 µM): 1.05 | viability ([10]; 2 µM): 1.02 | viability ([10]; 10 µM): 0.0351 | viability ([11]; 0.016 µM): 1.09 | viability ([11]; 0.08 µM): 1.13 | viability ([11]; 0.4 µM): 1.02 | viability ([11]; 2 µM): 0.305 | viability ([11]; 10 µM): 0.0182 | viability ([12]; 0.016 µM): 1.04 | viability ([12]; 0.08 µM): 1.15 | viability ([12]; 0.4 µM): 1.17 | viability ([12]; 2 µM): 0.984 | viability ([12]; 10 µM): 0.453 | viability ([13]; 0.016 µM): 0.935 | viability ([13]; 0.08 µM): 0.964 | viability ([13]; 0.4 µM): 0.978 | viability ([13]; 2 µM): 0.959 | viability ([13]; 10 µM): 0.528 | viability ([14]; 0.016 µM): 0.963 | viability ([14]; 0.08 µM): 1.15 | viability ([14]; 0.4 µM): 1.17 | viability ([14]; 2 µM): 1.06 | viability ([14]; 10 µM): 0.0329 | viability ([15]; 0.016 µM): 1.04 | viability ([15]; 0.08 µM): 1.24 | viability ([15]; 0.4 µM): 0.794 | viability ([15]; 2 µM): 0.553 | viability ([15]; 10 µM): 0.0382 | viability ([16]; 0.016 µM): 1.13 | viability ([16]; 0.08 µM): 1.3 | viability ([16]; 0.4 µM): 2.22 | viability ([16]; 2 µM): 1.82 | viability ([16]; 10 µM): 0.0652 | viability ([17]; 0.016 µM): 0.695 | viability ([17]; 0.08 µM): 0.674 | viability ([17]; 0.4 µM): 0.584 | viability ([17]; 2 µM): 0.439 | viability ([17]; 10 µM): 0.033 | viability ([18]; 0.016 µM): 0.812 | viability ([18]; 0.08 µM): 0.846 | viability ([18]; 0.4 µM): 0.572 | viability ([18]; 2 µM): 0.417 | viability ([18]; 10 µM): 0.031 | viability ([19]; 0.016 µM): 0.613 | viability ([19]; 0.08 µM): 1.35 | viability ([19]; 0.4 µM): 0.631 | viability ([19]; 2 µM): 0.73 | viability ([19]; 10 µM): 0.157 | viability ([20]; 0.016 µM): 1.03 | viability ([20]; 0.08 µM): 1.07 | viability ([20]; 0.4 µM): 1.12 | viability ([20]; 2 µM): 0.963 | viability ([20]; 10 µM): 0.348
